Results published in ChEMBL document CHEMBL1275576, “In vitro activity of tomopenem (CS-023/RO4908463) against anaerobic bacteria” (Antimicrob Agents Chemother, 2009).

Columns and labels:
Type in all cases: functional
Capnocytophaga ochracea = experiment: Antimicrobial activity against Capnocytophaga ochracea GAI 5586 by agar dilution method in presence of 5% laked sheep blood
Clostridium septicum = experiment: Antimicrobial activity against Clostridium septicum ATCC 12464 by agar dilution method in presence of 5% laked sheep blood
[1] = system: Paeniclostridium sordellii; experiment: Antimicrobial activity against Clostridium sordellii ATCC 9714 by agar dilution method in presence of 5% laked sheep blood; conditions: Paraclostridium sordellii
Atopobium parvulum = experiment: Antimicrobial activity against Atopobium parvulum VPI 0546 by agar dilution method in presence of 5% laked sheep blood; conditions: Lancefieldella parvula
Campylobacter gracilis = experiment: Antimicrobial activity against Campylobacter gracilis JCM 8538 by agar dilution method in presence of 5% laked sheep blood
[2] = Antimicrobial activity against Veillonella dispar ATCC 17748 by agar dilution method in presence of 5% laked sheep blood
[3] = system: Fusobacterium necrophorum; experiment: Antimicrobial activity against Fusobacterium necrophorum ATCC 25286 by agar dilution method in presence of 5% laked sheep blood
[4] = Antimicrobial activity against Bifidobacterium adolescentis ATCC 15703 by agar dilution method in presence of 5% laked sheep blood
Prevotella intermedia = experiment: Antimicrobial activity against Prevotella intermedia ATCC 25611 by agar dilution method in presence of 5% laked sheep blood
Prevotella denticola = experiment: Antimicrobial activity against Prevotella denticola GAI 5490 by agar dilution method in presence of 5% laked sheep blood
Schaalia odontolytica = experiment: Antimicrobial activity against Actinomyces odontolyticus GAI 91002 by agar dilution method in presence of 5% laked sheep blood
[5] = system: Desulfovibrio desulfuricans; experiment: Antimicrobial activity against Desulfovibrio desulfuricans ATCC 29577 by agar dilution method in presence of 5% laked sheep blood
Prevotella bivia = experiment: Antimicrobial activity against Prevotella bivia ATCC 29303 by agar dilution method in presence of 5% laked sheep blood; conditions: DSM 20514
[6] = system: Streptococcus intermedius; experiment: Antimicrobial activity against Streptococcus intermedius ATCC 27335 by agar dilution method in presence of 5% laked sheep blood
Bacteroides uniformis = experiment: Antimicrobial activity against Bacteroides uniformis ATCC 8492 by agar dilution method in presence of 5% laked sheep blood
[7] = system: Lactiplantibacillus plantarum; experiment: Antimicrobial activity against Lactobacillus plantarum JCM 1149 by agar dilution method in presence of 5% laked sheep blood
Bacteroides fragilis [8] = experiment: Antimicrobial activity against carbapenemase-producing Bacteroides fragilis GAI 30079 by agar dilution method in presence of 5% laked sheep blood
[9] = system: Lactobacillus acidophilus; experiment: Antimicrobial activity against Lactobacillus acidophilus JCM 1132 by agar dilution method in presence of 5% laked sheep blood
[10] = system: Limosilactobacillus fermentum; experiment: Antimicrobial activity against Lactobacillus fermentum JCM 1173 by agar dilution method in presence of 5% laked sheep blood
Gemella morbillorum = experiment: Antimicrobial activity against Gemella morbillorum ATCC 27824 by agar dilution method in presence of 5% laked sheep blood
Bifidobacterium bifidum = experiment: Antimicrobial activity against Bifidobacterium bifidum JCM 1255 by agar dilution method in presence of 5% laked sheep blood
Fusobacterium varium = experiment: Antimicrobial activity against Fusobacterium varium ATCC 8501 by agar dilution method in presence of 5% laked sheep blood
Lacticaseibacillus casei = experiment: Antimicrobial activity against Lactobacillus casei subsp. casei JCM 1134 by agar dilution method in presence of 5% laked sheep blood
Veillonella parvula = experiment: Antimicrobial activity against Veillonella parvula ATCC 10790 by agar dilution method in presence of 5% laked sheep blood
Anaerococcus prevotii = experiment: Antimicrobial activity against Anaerococcus prevotii ATCC 9321 by agar dilution method in presence of 5% laked sheep blood
[11] = system: Bacteroides thetaiotaomicron; experiment: Antimicrobial activity against Bacteroides thetaiotaomicron ATCC 29741 by agar dilution method in presence of 5% laked sheep blood
Bacteroides ovatus = experiment: Antimicrobial activity against Bacteroides ovatus ATCC 8483 by agar dilution method in presence of 5% laked sheep blood
Peptoniphilus indolicus = experiment: Antimicrobial activity against Peptoniphilus indolicus GAI 0915 by agar dilution method in presence of 5% laked sheep blood
Hoylesella oralis = experiment: Antimicrobial activity against Prevotella oralis ATCC 33269 by agar dilution method in presence of 5% laked sheep blood
Bilophila wadsworthia = experiment: Antimicrobial activity against Bilophila wadsworthia WAL 7959 by agar dilution method in presence of 5% laked sheep blood
[12] = system: Peptoniphilus asaccharolyticus; experiment: Antimicrobial activity against Peptoniphilus asaccharolyticus WAL 3218 by agar dilution method in presence of 5% laked sheep blood
[13] = system: Propionibacterium granulosum; experiment: Antimicrobial activity against Propionibacterium granulosum ATCC 25564 by agar dilution method in presence of 5% laked sheep blood; conditions: Cutibacterium granulosum
Clostridioides difficile = experiment: Antimicrobial activity against Clostridium difficile GAI 10029 by agar dilution method in presence of 5% laked sheep blood
Cutibacterium acnes = experiment: Antimicrobial activity against Propionibacterium acnes ATCC 11828 by agar dilution method in presence of 5% laked sheep blood
Bacteroides fragilis [14] = experiment: Antimicrobial activity against Bacteroides fragilis GAI 5562 by agar dilution method in presence of 5% laked sheep blood
[15] = system: Peptostreptococcus anaerobius; experiment: Antimicrobial activity against Peptostreptococcus anaerobius ATCC 27337 by agar dilution method in presence of 5% laked sheep blood
Eggerthella lenta = experiment: Antimicrobial activity against Eggerthella lenta ATCC 25559 by agar dilution method in presence of 5% laked sheep blood
[16] = Antimicrobial activity against Parabacteroides distasonis ATCC 8503 by agar dilution method in presence of 5% laked sheep blood
[17] = system: Campylobacter ureolyticus; experiment: Antimicrobial activity against Bacteroides ureolyticus NCTC 10941 by agar dilution method in presence of 5% laked sheep blood
Bifidobacterium breve = experiment: Antimicrobial activity against Bifidobacterium breve ATCC 15700 by agar dilution method in presence of 5% laked sheep blood
Bacteroides fragilis [18] = experiment: Antimicrobial activity against carbapenemase-producing Bacteroides fragilis GAI 30144 by agar dilution method in presence of 5% laked sheep blood
[19] = system: Staphylococcus saccharolyticus; experiment: Antimicrobial activity against Staphylococcus saccharolyticus ATCC 14953 by agar dilution method in presence of 5% laked sheep blood
[20] = system: Streptococcus constellatus; experiment: Antimicrobial activity against Streptococcus constellatus ATCC 27923 by agar dilution method in presence of 5% laked sheep blood
[21] = Antimicrobial activity against Bifidobacterium longum subsp. longum ATCC 15707 by agar dilution method in presence of 5% laked sheep blood
Thomasclavelia ramosa = experiment: Antimicrobial activity against Clostridium ramosum ATCC 25582 by agar dilution method in presence of 5% laked sheep blood
Lactobacillus salivarius = experiment: Antimicrobial activity against Lactobacillus salivarius subsp. salivarius JCM 1231 by agar dilution method in presence of 5% laked sheep blood; conditions: Ligilactobacillus salivarius

Which MIC (Capnocytophaga ochracea) does the source give for `C[C@@H](O)[C@H]1C(=O)N2C(C(=O)O)=C(S[C@@H]3CN[C@H](CNS(N)(=O)=O)C3)[C@H](C)[C@H]12` [DORIPENEM] here?
Its MIC is 0.125 µg/mL.

What about the MIC (Clostridium septicum) of the same compound?
Its MIC is 0.06 µg/mL.

What about the MIC [1] of the same compound?
Its MIC is at most 0.015 µg/mL.

What about the MIC (Atopobium parvulum) of the same compound?
Its MIC is 1 µg/mL.

What about the MIC (Campylobacter gracilis) of the same compound?
The MIC was 0.125 µg/mL.

What about the MIC [2] of the same compound?
Its MIC is 0.06 µg/mL.

And the MIC [3]?
Its MIC is at most 0.015 µg/mL.

And the MIC [4]?
The MIC was 0.25 µg/mL.

What about the MIC (Prevotella intermedia) of the same compound?
The MIC was 0.06 µg/mL.

What about the MIC (Prevotella denticola) of the same compound?
Its MIC is 0.06 µg/mL.

And the MIC (Schaalia odontolytica)?
Its MIC is 0.25 µg/mL.

What about the MIC [5] of the same compound?
The MIC was 0.125 µg/mL.

What about the MIC (Prevotella bivia) of the same compound?
The MIC was 0.5 µg/mL.

What about the MIC [6] of the same compound?
The MIC was 0.125 µg/mL.

What about the MIC (Bacteroides uniformis) of the same compound?
Its MIC is 0.25 µg/mL.

What about the MIC [7] of the same compound?
The MIC was 0.125 µg/mL.

What about the MIC (Bacteroides fragilis [8]) of the same compound?
Its MIC is over 128 µg/mL.

What about the MIC [9] of the same compound?
The MIC was 0.125 µg/mL.

What about the MIC [10] of the same compound?
The MIC was 0.06 µg/mL.

What about the MIC (Gemella morbillorum) of the same compound?
The MIC was at most 0.015 µg/mL.

And the MIC (Bifidobacterium bifidum)?
The MIC was 0.125 µg/mL.

And the MIC (Fusobacterium varium)?
The MIC was 0.5 µg/mL.

And the MIC (Lacticaseibacillus casei)?
The MIC was 1 µg/mL.

And the MIC (Veillonella parvula)?
Its MIC is 0.06 µg/mL.

And the MIC (Anaerococcus prevotii)?
The MIC was 0.25 µg/mL.

And the MIC [11]?
The MIC was 0.5 µg/mL.

What about the MIC (Bacteroides ovatus) of the same compound?
The MIC was 0.5 µg/mL.

And the MIC (Peptoniphilus indolicus)?
The MIC was at most 0.015 µg/mL.

And the MIC (Hoylesella oralis)?
Its MIC is 0.06 µg/mL.

And the MIC (Bilophila wadsworthia)?
Its MIC is 0.06 µg/mL.

What about the MIC [12] of the same compound?
Its MIC is 0.03 µg/mL.

And the MIC [13]?
Its MIC is 0.5 µg/mL.

What about the MIC (Clostridioides difficile) of the same compound?
Its MIC is 4 µg/mL.

What about the MIC (Cutibacterium acnes) of the same compound?
Its MIC is 1 µg/mL.

What about the MIC (Bacteroides fragilis [14]) of the same compound?
The MIC was 0.5 µg/mL.

And the MIC [15]?
Its MIC is 0.5 µg/mL.

What about the MIC (Eggerthella lenta) of the same compound?
The MIC was 0.25 µg/mL.

And the MIC [16]?
The MIC was 0.5 µg/mL.

What about the MIC [17] of the same compound?
The MIC was 0.06 µg/mL.

What about the MIC (Bifidobacterium breve) of the same compound?
The MIC was 1 µg/mL.

And the MIC (Bacteroides fragilis [18])?
The MIC was over 128 µg/mL.

And the MIC [19]?
The MIC was 0.06 µg/mL.

What about the MIC [20] of the same compound?
The MIC was 0.5 µg/mL.

What about the MIC [21] of the same compound?
The MIC was 1 µg/mL.

What about the MIC (Thomasclavelia ramosa) of the same compound?
The MIC was 1 µg/mL.

And the MIC (Lactobacillus salivarius)?
Its MIC is 0.5 µg/mL.

What does the source list for `C[C@@H](O)[C@H]1C(=O)N2C(C(=O)O)=C(S[C@H]3C[C@@H](C(=O)N4CC[C@H](NC(=O)CNC(=N)N)C4)N(C)C3)[C@H](C)[C@H]12` [TOMOPENEM]?
MIC (Capnocytophaga ochracea): 0.06 µg/mL; MIC (Clostridium septicum): 0.03 µg/mL; MIC [1]: ≤ 0.015 µg/mL; MIC (Atopobium parvulum): 0.5 µg/mL; MIC (Campylobacter gracilis): 0.06 µg/mL; MIC [2]: 0.03 µg/mL; MIC [3]: ≤ 0.015 µg/mL; MIC [4]: 0.125 µg/mL; MIC (Prevotella intermedia): 0.06 µg/mL; MIC (Prevotella denticola): 0.06 µg/mL; MIC (Schaalia odontolytica): 0.5 µg/mL; MIC [5]: 0.25 µg/mL; MIC (Prevotella bivia): 0.5 µg/mL; MIC [6]: 0.125 µg/mL; MIC (Bacteroides uniformis): 0.25 µg/mL; MIC [7]: 0.06 µg/mL; MIC (Bacteroides fragilis [8]): > 128 µg/mL; MIC [9]: 0.25 µg/mL; MIC [10]: 0.125 µg/mL; MIC (Gemella morbillorum): 0.03 µg/mL; MIC (Bifidobacterium bifidum): 0.06 µg/mL; MIC (Fusobacterium varium): 0.5 µg/mL; MIC (Lacticaseibacillus casei): 1 µg/mL; MIC (Veillonella parvula): 0.03 µg/mL; MIC (Anaerococcus prevotii): 0.125 µg/mL; MIC [11]: 0.5 µg/mL; MIC (Bacteroides ovatus): 0.5 µg/mL; MIC (Peptoniphilus indolicus): ≤ 0.015 µg/mL; MIC (Hoylesella oralis): 0.06 µg/mL; MIC (Bilophila wadsworthia): 0.125 µg/mL; MIC [12]: 0.03 µg/mL; MIC [13]: 0.5 µg/mL; MIC (Clostridioides difficile): 2 µg/mL; MIC (Cutibacterium acnes): 1 µg/mL; MIC (Bacteroides fragilis [14]): 0.25 µg/mL; MIC [15]: 0.5 µg/mL; MIC (Eggerthella lenta): 0.5 µg/mL; MIC [16]: 0.25 µg/mL; MIC [17]: 0.03 µg/mL; MIC (Bifidobacterium breve): 1 µg/mL; MIC (Bacteroides fragilis [18]): > 128 µg/mL; MIC [19]: 0.06 µg/mL; MIC [20]: 0.25 µg/mL; MIC [21]: 0.5 µg/mL; MIC (Thomasclavelia ramosa): 0.5 µg/mL; MIC (Lactobacillus salivarius): 0.5 µg/mL
